Measured values taken from the NIST ThermoML archive (doi:10.1021/je0341357).
± gives the expanded uncertainty stated by the source.

Details: Liquid; Visual observation in an unstirred cell

| SMILES | Critical temperature [K] |
| --- | --- |
| C/C=C\C(C)C [(Z)-4-methyl-2-pentene] | 496.3 ± 0.7 |
| C=C(C)C(C)CC (centres undefined) [2,3-dimethyl-1-pentene] | 533.6 ± 4.3 |
| CCC=C(C)C [2-methyl-2-pentene] | 509.3 ± 0.5 |
| CC(C)N [2-propanamine] | 472.5 ± 0.4 |
| CC/C=C/CC [(E)-3-hexene] | 507.4 ± 2 |
| CC/C=C\CC [(Z)-3-hexene] | 510.2 ± 1.4 |
| C=CCC(C)C [4-methyl-1-pentene] | 493.1 ± 0.5 |
| C/C=C\CCC [(Z)-2-hexene] | 513.4 ± 0.9 |
| C=C(C)CC [2-methyl-1-butene] | 467 ± 0.5 |
| C1CCCCCCC1 [cyclooctane] | 647.5 ± 0.4 |
| CCC1CCCCC1 [ethylcyclohexane] | 606.9 ± 0.4 |
| CC(C)CC1CCCCC1 [2-methylpropylcyclohexane] | 642.1 ± 0.6 |
| C=CCC(C)(C)C [4,4-dimethyl-1-pentene] | 516 ± 4 |
| C1CCCCC1 [cyclohexane] | 553.6 ± 1.1 |
| C=C(C)C(C)C [2,3-dimethyl-1-butene] | 497.7 ± 0.9 |
| CCCC1CCCCC1 [1-cyclohexylpropane] | 630.8 ± 0.9 |
| NC1CCCCC1 [cyclohexylamine] | 626.8 ± 0.9 |
| C=CCCC(C)C [5-methyl-1-hexene] | 528.7 ± 0.4 |
| CC(C)C1CCCCC1 [(1-methylethyl)cyclohexane] | 632.2 ± 0.4 |
| CC(C)=C(C)C [2,3-dimethyl-2-butene] | 521 ± 0.9 |
| C=CC(C)(C)C [3,3-dimethyl-1-butene] | 477.4 ± 0.9 |
| CC(C)(C)C1CCCCC1 [1,1-dimethylethylcyclohexane] | 652 ± 0.4 |

Results, then the compound that gave them:

| Critical temperature [K] | SMILES |
| --- | --- |
| 499.2 ± 0.4 | CCCN [propan-1-amine] |
| 592 ± 1 | CCCCCCNC [1-hexanamine, N-methyl-] |
| 653.1 ± 0.4 | CCCCC1CCCCC1 [butylcyclohexane] |
| 566.3 ± 1.1 | CCC/C=C/CCC [(E)-4-octene] |
| 541.8 ± 1.1 | C=C(C)CCCC [2-methyl-1-hexene] |
| 521 ± 0.4 | C=C(C)CCC [2-methyl-1-pentene] |
| 548.5 ± 0.6 | C/C=C\CCCC [2-heptene, (Z)-] |
| 598 ± 2.1 | CCCCCC(C)N (centres undefined) [1-methylhexylamine] |
| 542.8 ± 0.4 | C/C=C/CCCC [2-heptene, (E)-] |
| 567.5 ± 0.9 | C=C(C)CCCCC [2-methyl-1-heptene] |
| 568.9 ± 1.1 | CCCCC=C(C)C [2-methyl-2-heptene] |
| 555.8 ± 1.1 | CCCNCCC [dipropylamine] |
| 538.6 ± 0.7 | CC/C=C/CCC [3-heptene, (E)-] |
| 607.5 ± 1.1 | CCCCNCCCC [dibutylamine] |
| 569.8 ± 0.4 | C/C=C/CCCCC [(E)-2-octene] |
| 592.3 ± 0.7 | CCCCCCN [1-hexanamine] |
| 509 ± 0.7 | C/C=C/CCC [(E)-2-hexene] |
